Columns and labels:
[1] = tested on: Moderate to severe Crohn's disease (CD) subjects; experiment: Phase IIa trial CD-LAQ-201: safety/tolerability (adverse events); format: in vivo, human
Description: Safety/Tolerability • 1. Adverse events (AEs). • 2. Clinical laboratory values. • 3. Vital signs. • 4. ECG. • 5. Proportion of subjects who prematurely discontinue treatment. • 6. Proportion of subjects who prematurely discontinue treatment due to AEs. • 7. Time to premature treatment discontinuation. • 8. Time to premature treatment discontinuation due to AEs.

[2] = tested on: Subjects with moderate to severe Crohn's disease (CD); experiment: Phase IIb trial LAQ-CD-202 (Example 3); format: in vivo, human
Description: Capsules should be swallowed with a glass of water.
On Days 1 and 2, this dose is administered twice daily (BID) as a loading dose (total daily dose 0.5 mg). Dosing is once daily (QD) from Day 3 onwards.
On Days 1 and 2, this dose is administered BID as a loading dose (total daily dose 1 mg). Dosing is QD from Day 3 onwards.
Subjects with moderate to severe Crohn's disease (CD), as determined by a Crohn's Disease Activity Index (CDAI) score of 220-450 (inclusive).
Remission: subjects with CDAI <150 subjects not designated a Treatment Failure (TF).
Response 100: reduction of CDAI by at least 100 points compared to Baseline in subjects not designated a Treatment Failure (TF). Any subject with Remission is also considered to have achieved Response 100.
Response 70: reduction of CDAI by at least 70 points compared to Baseline, in subjects not designated a TF.
IBDQ Response: An increase from baseline in total IBDQ score of ≧16 points.
IBDQ Remission: A total IBDQ score of >170 points.
Treatment duration is 8 weeks. Scheduled in-clinic visits are conducted at Screening, Baseline (Week 0), and at Weeks 1, 2, 4, 6, and 8. Unscheduled visits for safety or for any other reason may be conducted at any time during the study
A loading dose regimen of the study drug is given during the first 2 days of treatment (Day 1 [Baseline] and Day 2). The first loading dose of the study drug is administered at the site. The loading dose doubles the intended dose for the first 2 days and is administered BID with 12-hour intervals between dosing. Thereafter, starting on Day 3, the dosing regimen consists of the intended dose QD.
During the study period the CDAI score is assessed in addition to routine safety. Subjects are required to maintain CDAI diaries for each day of the Screening period and, if randomized, on each day of the treatment period. The scores obtained from the 7 consecutive diaries completed prior to the Baseline visit and to each of Weeks 1, 2, 4, 6, and 8 contribute to a total CDAI score at each of these time points.
The primary efficacy endpoint is the proportion of subjects achieving Remission (CDAI <150) at Week 8 with subjects not designated a Treatment Failure (TF).
Secondary Efficacy Endpoints: • Proportion of subjects achieving Response 70 at Week 8. • Proportion of subjects achieving Response 100 at Week 8. • Mean change in total IBDQ score from Baseline to Week 8. • Proportion of subjects with an IBDQ Response at Week 8. • Proportion of subjects with IBDQ Remission at Week 8.

SMILES: CCN(C(=O)c1c(O)c2c(Cl)cccc2n(C)c1=O)c1ccccc1 [laquinimod]
- dose response relationship for the overall incidence of AEs ([1]; 0.5-2.0 mg/day): no apparent dose response relationship
- Common Adverse Events: Abdominal Distension ([1]; Laq 0.5 mg (N = 29)): 10.3%
- Common Adverse Events: Abdominal Pain ([1]; Laq 0.5 mg (N = 29)): 17.2%
- Common Adverse Events: Abdominal Pain Upper ([1]; Laq 0.5 mg (N = 29)): 3.4%
- Common Adverse Events: Alanine Aminotransferase Increased ([1]; Laq 0.5 mg (N = 29)): 0%
- Common Adverse Events: Asthenia ([1]; Laq 0.5 mg (N = 29)): 3.4%
- Common Adverse Events: Back Pain ([1]; Laq 0.5 mg (N = 29)): 10.3%
- Common Adverse Events: Cough ([1]; Laq 0.5 mg (N = 29)): 6.9%
- Common Adverse Events: Crohn's Disease^a ([1]; Laq 0.5 mg (N = 29)): 6.9%
- Common Adverse Events: Diarrhoea ([1]; Laq 0.5 mg (N = 29)): 20.7%
- Common Adverse Events: Dizziness ([1]; Laq 0.5 mg (N = 29)): 3.4%
- Common Adverse Events: Fatigue ([1]; Laq 0.5 mg (N = 29)): 6.9%
- Common Adverse Events: Headache ([1]; Laq 0.5 mg (N = 29)): 24.1%
- Common Adverse Events: Myalgia ([1]; Laq 0.5 mg (N = 29)): 0%
- Common Adverse Events: Nausea ([1]; Laq 0.5 mg (N = 29)): 3.4%
- Common Adverse Events: Pyrexia ([1]; Laq 0.5 mg (N = 29)): 24.1%
- Common Adverse Events: Rectal Haemorrhage ([1]; Laq 0.5 mg (N = 29)): 0%
- Common Adverse Events: Tachycardia ([1]; Laq 0.5 mg (N = 29)): 0%
- Common Adverse Events: Vomiting ([1]; Laq 0.5 mg (N = 29)): 17.2%
- Common Adverse Events: Abdominal Distension ([1]; Laq 1.0 mg (N = 30)): 0%
- Common Adverse Events: Abdominal Pain ([1]; Laq 1.0 mg (N = 30)): 13.3%
- Common Adverse Events: Abdominal Pain Upper ([1]; Laq 1.0 mg (N = 30)): 0%
- Common Adverse Events: Alanine Aminotransferase Increased ([1]; Laq 1.0 mg (N = 30)): 10%
- Common Adverse Events: Asthenia ([1]; Laq 1.0 mg (N = 30)): 6.7%
- Common Adverse Events: Back Pain ([1]; Laq 1.0 mg (N = 30)): 10%
- Common Adverse Events: Cough ([1]; Laq 1.0 mg (N = 30)): 10%
- Common Adverse Events: Crohn's Disease^a ([1]; Laq 1.0 mg (N = 30)): 16.7%
- Common Adverse Events: Diarrhoea ([1]; Laq 1.0 mg (N = 30)): 3.3%
- Common Adverse Events: Dizziness ([1]; Laq 1.0 mg (N = 30)): 3.3%
- Common Adverse Events: Fatigue ([1]; Laq 1.0 mg (N = 30)): 0%
- Common Adverse Events: Headache ([1]; Laq 1.0 mg (N = 30)): 26.7%
- Common Adverse Events: Myalgia ([1]; Laq 1.0 mg (N = 30)): 3.3%
- Common Adverse Events: Nausea ([1]; Laq 1.0 mg (N = 30)): 20%
- Common Adverse Events: Pyrexia ([1]; Laq 1.0 mg (N = 30)): 3.3%
- Common Adverse Events: Rectal Haemorrhage ([1]; Laq 1.0 mg (N = 30)): 3.3%
- Common Adverse Events: Tachycardia ([1]; Laq 1.0 mg (N = 30)): 0%
- Common Adverse Events: Vomiting ([1]; Laq 1.0 mg (N = 30)): 20%
- Common Adverse Events: Abdominal Distension ([1]; Laq 1.5 mg (N = 29)): 3.4%
- Common Adverse Events: Abdominal Pain ([1]; Laq 1.5 mg (N = 29)): 24.1%
- Common Adverse Events: Abdominal Pain Upper ([1]; Laq 1.5 mg (N = 29)): 6.9%
- Common Adverse Events: Alanine Aminotransferase Increased ([1]; Laq 1.5 mg (N = 29)): 0%
- Common Adverse Events: Asthenia ([1]; Laq 1.5 mg (N = 29)): 10.3%
- Common Adverse Events: Back Pain ([1]; Laq 1.5 mg (N = 29)): 13.8%
- Common Adverse Events: Cough ([1]; Laq 1.5 mg (N = 29)): 6.9%
- Common Adverse Events: Crohn's Disease^a ([1]; Laq 1.5 mg (N = 29)): 17.2%
- Common Adverse Events: Diarrhoea ([1]; Laq 1.5 mg (N = 29)): 0%
- Common Adverse Events: Dizziness ([1]; Laq 1.5 mg (N = 29)): 10.3%
- Common Adverse Events: Fatigue ([1]; Laq 1.5 mg (N = 29)): 10.3%
- Common Adverse Events: Headache ([1]; Laq 1.5 mg (N = 29)): 24.1%
- Common Adverse Events: Myalgia ([1]; Laq 1.5 mg (N = 29)): 0%
- Common Adverse Events: Nausea ([1]; Laq 1.5 mg (N = 29)): 6.9%
- Common Adverse Events: Pyrexia ([1]; Laq 1.5 mg (N = 29)): 20.7%
- Common Adverse Events: Rectal Haemorrhage ([1]; Laq 1.5 mg (N = 29)): 10.3%
- Common Adverse Events: Tachycardia ([1]; Laq 1.5 mg (N = 29)): 10.3%
- Common Adverse Events: Vomiting ([1]; Laq 1.5 mg (N = 29)): 3.4%
- Common Adverse Events: Abdominal Distension ([1]; Laq 2.0 mg (N = 29)): 3.4%
- Common Adverse Events: Abdominal Pain ([1]; Laq 2.0 mg (N = 29)): 24.1%
- Common Adverse Events: Abdominal Pain Upper ([1]; Laq 2.0 mg (N = 29)): 17.2%
- Common Adverse Events: Alanine Aminotransferase Increased ([1]; Laq 2.0 mg (N = 29)): 3.4%
- Common Adverse Events: Asthenia ([1]; Laq 2.0 mg (N = 29)): 6.9%
- Common Adverse Events: Back Pain ([1]; Laq 2.0 mg (N = 29)): 3.4%
- Common Adverse Events: Cough ([1]; Laq 2.0 mg (N = 29)): 3.4%
- Common Adverse Events: Crohn's Disease^a ([1]; Laq 2.0 mg (N = 29)): 13.8%
- Common Adverse Events: Diarrhoea ([1]; Laq 2.0 mg (N = 29)): 10.3%
- Common Adverse Events: Dizziness ([1]; Laq 2.0 mg (N = 29)): 3.4%
- Common Adverse Events: Fatigue ([1]; Laq 2.0 mg (N = 29)): 0%
- Common Adverse Events: Headache ([1]; Laq 2.0 mg (N = 29)): 44.8%
- Common Adverse Events: Myalgia ([1]; Laq 2.0 mg (N = 29)): 17.2%
- Common Adverse Events: Nausea ([1]; Laq 2.0 mg (N = 29)): 20.7%
- Common Adverse Events: Pyrexia ([1]; Laq 2.0 mg (N = 29)): 13.8%
- Common Adverse Events: Rectal Haemorrhage ([1]; Laq 2.0 mg (N = 29)): 0%
- Common Adverse Events: Tachycardia ([1]; Laq 2.0 mg (N = 29)): 3.4%
- Common Adverse Events: Vomiting ([1]; Laq 2.0 mg (N = 29)): 20.7%
- tolerability ([1]; active Crohns disease): well tolerated
- change from Baseline in biochemical or hematological parameters ([1]; any of the dose groups): no consistent trends in change from Baseline
- deaths during the study ([1]; in vivo): No subject died
- severity of most AEs ([1]; in vivo): mild or moderate
- changes in vital signs or ECGs ([1]; laquinimod dose groups): no clinically significant changes
- most common SAE: CD (exacerbation), % of patients ([1]; laquinimod groups, pooled placebo 1.6%): 3.4-6.9%
- overall incidence of AEs ([1]; laquinimod groups, pooled placebo 82.5%): 86.2-96.7%
- improve IBDQ score from Baseline by Week 8 ([2]; 0.25 mg/day): effective
- induce IBDQ Response and/or IBDQ Remission by Week 8 ([2]; 0.25 mg/day): effective
- induce Remission (CDAI <150) by Week 8 ([2]; 0.25 mg/day): effective
- induce Response 70 and/or Response 100 by Week 8 ([2]; 0.25 mg/day): effective
- improve IBDQ score from Baseline by Week 8 ([2]; 0.5 mg/day): effective
- induce IBDQ Response and/or IBDQ Remission by Week 8 ([2]; 0.5 mg/day): effective
- induce Remission (CDAI <150) by Week 8 ([2]; 0.5 mg/day): effective
- induce Response 70 and/or Response 100 by Week 8 ([2]; 0.5 mg/day): effective
